From patent US20150005262A1, “HYPOXIA ACTIVATED PRODRUGS AND MTOR INHIBITORS FOR TREATING CANCER” (THRESHOLD PHARMACEUTICALS, INC., priority 2011, published 2015)
Entries after “also recorded” stand apart in the source; their conditions may differ.

Columns and labels:
mTOR = mTOR (Homo sapiens, UniProt P42345); details: cited from earlier work
PI3K = details: read-out: IC50 for PI3-K; cited from earlier work
DNA-PK = DNA-PK (Homo sapiens, UniProt P78527); details: cited from earlier work
NCI-60 cell lines panel = details: cited from earlier work
Caki-1 cells [1] = experiment: Caki-1 RCC ectopic xenograft, TH-302 with everolimus; format: in vivo, nude mice; details: Caki-1 model; everolimus 5 mg/kg QD×19 p.o.; TH-302 50 mg/kg QD×5/week×3 weeks i.p.; both started day 1
786-0 cells [2] = experiment: 786-0 RCC ectopic xenograft, TH-302 with everolimus; format: in vivo, nude mice; details: 786-0 model; everolimus 5 mg/kg QD×19 p.o.; TH-302 50 mg/kg QD×5/week×3 weeks i.p.; both started day 1
SK-N-BE(2) cells = experiment: SK-N-BE(2) ectopic neuroblastoma model, TH-302 with everolimus; format: in vivo; details: SK-N-BE(2) model; everolimus 5 mg/kg QD×19 oral; TH-302 50 mg/kg QD×5/week×3 weeks i.p.
Caki-1 cells [3] = experiment: Caki-1 RCC ectopic xenograft, TH-302 with temsirolimus; format: in vivo, nude mice; details: Caki-1 model, temsirolimus 20 mg/kg QD×19 i.p.
From the text: (§1) In one combination therapy group, the temsirolimus and TH-302 administration both began on day 1; in the other combination therapy group, the TH-302 administration was initiated on day 8 after the first temsirolimus administration. Thus, two TH-302 monotherapy groups served as comparison groups (one group starting on day 1 and the other starting on day 8). […] The weight returned to normal when treatment stopped.

[4] = test system: 786-0 RCC xenograft tumors; experiment: Tumor hypoxia (pimonidazole, morphometric analysis) in 786-0 xenograft; format: in vivo, nude mice; details: for tumor hypoxic fraction: everolimus 5 mg/kg oral QD×8, TH-302 150 mg/kg i.p., sampled 72 hr after TH-302
[5] = test system: Caki-1 RCC xenograft tumors; experiment: Tumor hypoxia (pimonidazole, morphometric analysis) in Caki-1 xenograft; format: in vivo, nude mice; details: for tumor hypoxic fraction: temsirolimus 20 mg/kg i.p. QD×8, TH-302 150 mg/kg i.p., sampled 72 hr after TH-302; for change of tumor hypoxia (in words): vs vehicle, combination vs mTOR inhibitor alone
Protocol: Nude mice bearing 786-0 or Caki-1 RCC xenograft tumors were randomized into 4 groups (6-8 mice/group): vehicle, mTOR inhibitor, TH-302 monotherapy, and TH-302 in combination with mTOR inhibitor, respectively. In the mTOR inhibitor monotherapy group, animals were dosed with a QD×8 regimen, and tumors were sampled 4 hr after the last treatment. In the TH-302 monotherapy group, 150 mg/kg was administered intraperitoneally to the animals, and the tumors were sampled 72 hr after the TH-302 treatment. In the combination therapy group, TH-302 was administered 4 hr after the last dose of mTOR inhibitor (QD×8, oral), and the tumors were sampled 72 hr later. Pimonidazole was administered 1 hr before euthanization (tumors were sampled on euthanization).
A dose of 20 mg/kg of temsirolimus was administered intraperitoneally in the Caki-1 xenograft model. […] After temsirolimus treatment, the tumor hypoxic fraction was 12.8±0.7%, as compared to 7.5±1.9% in vehicle treated group (p<0.05). The tumor hypoxic fraction in the TH-302 monotherapy group was 4.3±0.7%.

Ki67, CD31, p-S6 = experiment: Pharmacodynamic study using immunohistochemistry of tumor tissue; format: in vivo, nude mice; details: after 7 days treatment of everolimus
786-0 cells [6] = experiment: 786-0 RCC ectopic xenograft, TH-302 with temsirolimus; format: in vivo, nude mice; details: 786-0 model; temsirolimus 20 mg/kg QD×19 i.p.; TH-302 50 mg/kg QD×5/week×2 to 3 weeks i.p.; combination range covers day 1 and day 8 schedules
From the text: as §1

DNA-PK, sequence (P78527 whole entry): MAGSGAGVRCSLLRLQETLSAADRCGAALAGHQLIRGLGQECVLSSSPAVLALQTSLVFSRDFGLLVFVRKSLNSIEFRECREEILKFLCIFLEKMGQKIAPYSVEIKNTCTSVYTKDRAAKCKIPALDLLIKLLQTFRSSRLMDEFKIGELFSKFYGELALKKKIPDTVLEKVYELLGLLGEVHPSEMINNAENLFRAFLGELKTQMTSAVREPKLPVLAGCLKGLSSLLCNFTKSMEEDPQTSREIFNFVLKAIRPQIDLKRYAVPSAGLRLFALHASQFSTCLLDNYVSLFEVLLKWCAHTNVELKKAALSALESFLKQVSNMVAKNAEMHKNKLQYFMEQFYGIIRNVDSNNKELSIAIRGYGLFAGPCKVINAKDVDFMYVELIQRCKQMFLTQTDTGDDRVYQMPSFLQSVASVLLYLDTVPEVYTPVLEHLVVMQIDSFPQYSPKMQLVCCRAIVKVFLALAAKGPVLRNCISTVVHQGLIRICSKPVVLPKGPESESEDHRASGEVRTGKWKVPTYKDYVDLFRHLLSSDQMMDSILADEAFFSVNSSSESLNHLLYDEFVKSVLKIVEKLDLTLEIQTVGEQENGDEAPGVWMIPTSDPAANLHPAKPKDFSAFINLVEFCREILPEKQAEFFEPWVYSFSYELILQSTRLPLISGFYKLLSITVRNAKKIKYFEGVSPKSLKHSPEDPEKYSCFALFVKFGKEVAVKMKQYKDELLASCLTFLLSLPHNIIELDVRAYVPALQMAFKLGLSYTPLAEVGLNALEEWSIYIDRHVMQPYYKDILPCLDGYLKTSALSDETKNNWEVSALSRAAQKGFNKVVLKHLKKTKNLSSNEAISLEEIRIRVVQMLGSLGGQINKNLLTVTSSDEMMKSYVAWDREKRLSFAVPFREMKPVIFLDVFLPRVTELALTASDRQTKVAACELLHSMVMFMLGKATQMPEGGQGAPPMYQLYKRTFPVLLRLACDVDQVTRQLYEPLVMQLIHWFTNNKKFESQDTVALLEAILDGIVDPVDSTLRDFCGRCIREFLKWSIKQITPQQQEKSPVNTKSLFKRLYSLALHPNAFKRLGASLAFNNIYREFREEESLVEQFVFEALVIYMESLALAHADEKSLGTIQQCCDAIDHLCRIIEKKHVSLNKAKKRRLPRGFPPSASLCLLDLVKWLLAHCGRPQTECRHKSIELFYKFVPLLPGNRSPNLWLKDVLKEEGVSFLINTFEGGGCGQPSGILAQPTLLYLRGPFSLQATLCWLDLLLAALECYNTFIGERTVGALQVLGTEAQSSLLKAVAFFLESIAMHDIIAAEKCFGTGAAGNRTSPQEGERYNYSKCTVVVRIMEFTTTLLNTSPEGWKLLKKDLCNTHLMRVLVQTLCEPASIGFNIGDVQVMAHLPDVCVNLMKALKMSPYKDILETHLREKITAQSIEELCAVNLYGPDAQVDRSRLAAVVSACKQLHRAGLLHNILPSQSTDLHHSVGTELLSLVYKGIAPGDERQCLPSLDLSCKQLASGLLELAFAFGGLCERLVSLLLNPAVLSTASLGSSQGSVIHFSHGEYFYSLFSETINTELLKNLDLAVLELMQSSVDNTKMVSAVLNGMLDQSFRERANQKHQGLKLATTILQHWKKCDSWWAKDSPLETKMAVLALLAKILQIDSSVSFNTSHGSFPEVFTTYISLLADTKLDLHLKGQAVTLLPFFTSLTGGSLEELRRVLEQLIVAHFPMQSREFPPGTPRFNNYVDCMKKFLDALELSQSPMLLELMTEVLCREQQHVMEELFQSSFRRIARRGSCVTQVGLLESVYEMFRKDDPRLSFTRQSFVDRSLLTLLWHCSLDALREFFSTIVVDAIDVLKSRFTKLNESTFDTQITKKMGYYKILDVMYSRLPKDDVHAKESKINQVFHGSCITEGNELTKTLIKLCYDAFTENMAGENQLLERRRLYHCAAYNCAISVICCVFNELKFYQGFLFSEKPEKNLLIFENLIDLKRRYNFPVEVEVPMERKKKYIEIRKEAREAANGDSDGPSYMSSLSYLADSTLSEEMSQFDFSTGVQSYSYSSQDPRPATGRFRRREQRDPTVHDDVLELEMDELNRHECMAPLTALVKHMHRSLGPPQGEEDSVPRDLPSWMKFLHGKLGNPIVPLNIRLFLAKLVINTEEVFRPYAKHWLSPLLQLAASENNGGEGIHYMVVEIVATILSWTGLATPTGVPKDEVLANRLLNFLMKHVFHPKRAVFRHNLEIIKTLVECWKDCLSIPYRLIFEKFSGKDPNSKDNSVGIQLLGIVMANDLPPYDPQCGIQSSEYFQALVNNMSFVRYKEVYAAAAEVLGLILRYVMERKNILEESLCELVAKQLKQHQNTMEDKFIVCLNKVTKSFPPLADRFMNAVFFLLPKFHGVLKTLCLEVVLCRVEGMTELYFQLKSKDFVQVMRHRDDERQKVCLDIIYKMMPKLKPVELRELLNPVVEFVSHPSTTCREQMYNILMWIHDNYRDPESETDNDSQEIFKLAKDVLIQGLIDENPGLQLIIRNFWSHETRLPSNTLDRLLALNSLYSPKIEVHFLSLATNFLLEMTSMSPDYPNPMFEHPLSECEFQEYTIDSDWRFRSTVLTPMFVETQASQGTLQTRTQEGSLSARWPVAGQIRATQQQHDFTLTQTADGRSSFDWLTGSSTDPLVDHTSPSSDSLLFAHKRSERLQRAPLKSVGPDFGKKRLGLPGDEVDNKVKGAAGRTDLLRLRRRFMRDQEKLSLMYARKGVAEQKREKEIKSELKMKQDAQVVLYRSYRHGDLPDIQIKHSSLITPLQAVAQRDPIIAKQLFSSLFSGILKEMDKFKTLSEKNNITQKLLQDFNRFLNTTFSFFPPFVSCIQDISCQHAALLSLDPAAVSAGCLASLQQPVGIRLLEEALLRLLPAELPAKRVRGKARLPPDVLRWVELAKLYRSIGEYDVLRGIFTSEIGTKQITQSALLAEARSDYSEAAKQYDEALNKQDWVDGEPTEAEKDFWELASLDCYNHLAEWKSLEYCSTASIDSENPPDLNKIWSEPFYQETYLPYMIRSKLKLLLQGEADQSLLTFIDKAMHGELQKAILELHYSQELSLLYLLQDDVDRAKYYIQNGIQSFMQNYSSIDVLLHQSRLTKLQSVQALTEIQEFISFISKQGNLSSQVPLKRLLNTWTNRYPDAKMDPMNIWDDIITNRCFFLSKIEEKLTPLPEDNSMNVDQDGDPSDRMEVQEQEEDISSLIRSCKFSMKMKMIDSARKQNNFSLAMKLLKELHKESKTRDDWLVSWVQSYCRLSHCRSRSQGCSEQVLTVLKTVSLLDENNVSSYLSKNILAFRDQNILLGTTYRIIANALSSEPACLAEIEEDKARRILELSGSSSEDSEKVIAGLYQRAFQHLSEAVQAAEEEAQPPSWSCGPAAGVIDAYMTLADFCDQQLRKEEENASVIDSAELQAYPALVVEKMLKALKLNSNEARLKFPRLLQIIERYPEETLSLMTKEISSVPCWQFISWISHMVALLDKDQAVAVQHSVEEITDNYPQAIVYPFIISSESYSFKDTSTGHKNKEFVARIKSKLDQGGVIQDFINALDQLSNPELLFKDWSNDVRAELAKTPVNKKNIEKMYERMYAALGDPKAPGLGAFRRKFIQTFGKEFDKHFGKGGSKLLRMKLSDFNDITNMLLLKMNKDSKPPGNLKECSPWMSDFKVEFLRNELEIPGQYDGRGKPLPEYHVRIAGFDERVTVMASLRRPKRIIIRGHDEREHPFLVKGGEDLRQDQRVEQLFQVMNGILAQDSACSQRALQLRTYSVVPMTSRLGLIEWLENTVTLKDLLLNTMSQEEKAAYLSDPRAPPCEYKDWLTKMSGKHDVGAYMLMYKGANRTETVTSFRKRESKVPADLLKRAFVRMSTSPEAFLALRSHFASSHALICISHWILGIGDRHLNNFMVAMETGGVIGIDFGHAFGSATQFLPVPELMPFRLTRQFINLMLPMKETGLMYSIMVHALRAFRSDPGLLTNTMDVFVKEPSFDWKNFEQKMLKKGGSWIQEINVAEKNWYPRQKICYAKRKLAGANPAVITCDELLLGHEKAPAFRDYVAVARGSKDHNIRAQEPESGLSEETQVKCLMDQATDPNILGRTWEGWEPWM

Q: What does the source list for `O=c1cc(N2CCOCC2)oc2c(-c3cccc4c3sc3ccccc34)cccc12` [NU7441]?
A: IC50 (mTOR): 1700 nM; IC50 (PI3K): 5000 nM; IC50 (DNA-PK): 10 nM

Q: With `COc1ccc(COc2cc3oc(=O)c4cc(C(C)O)ccc4c3cc2OC)cc1` (stereo not drawn) [Palomid 529] as the molecule, how does the GI50 (NCI-60 cell lines panel) read?
A: Its GI50 is under 35000 nM.

Q: Which “tumor growth inhibition (TGI)” value (Caki-1 cells [1]) does the source give for `Cn1c(COP(=O)(NCCBr)NCCBr)cnc1[N+](=O)[O-]` [TH-302] here?
A: Its value is 57%.

Q: What about the “tumor growth inhibition (TGI)” value (786-0 cells [2]) of the same molecule?
A: Its value is “did not demonstrate statistically significant efficacy; also recorded: did not demonstrate statistically significant TGI”.

Q: What about the “tumor growth inhibition (TGI)” value (SK-N-BE(2) cells) of the same molecule?
A: Its value is 45%.

Q: And the “tumor growth inhibition (TGI)” value (Caki-1 cells [3]; TH-302 50 mg/kg i.p. starting on day 1)?
A: Its value is 79%.

Q: What about the “tumor growth inhibition (TGI)” value (Caki-1 cells [3]; TH-302 50 mg/kg i.p. starting on day 8) of the same molecule?
A: Its value is 89%.

Q: And the tumor hypoxic fraction [4]?
A: The tumor hypoxic fraction was 3.7±1.2%.

Q: And the tumor hypoxic fraction [5]?
A: The tumor hypoxic fraction was 4.3±0.7%.

Q: And the “change of tumor hypoxia (in words)” value [5]?
A: Its value is “reduces the size of the hypoxic region”.

Q: With `c1cncc(CN2CCC(n3ncc4c(N5CCOCC5)nc(-c5ccc6[nH]ccc6c5)nc43)CC2)c1` [WAY-600] as the molecule, how does the IC50 (mTOR) read?
A: Its IC50 is 9 nM.

Q: For `COC(=O)Nc1ccc(-c2nc(N3CCOCC3)c3cnn(C4CCN(C(=O)OC)CC4)c3n2)cc1` [WYE-354], which IC50 (mTOR) is on record?
A: Its IC50 is 5 nM.

Q: Which IC50 (mTOR) does the source give for `CNC(=O)Nc1ccc(-c2nc(N3CC4CCC(C3)O4)c3cnn(C4CCC5(CC4)OCCO5)c3n2)cc1` [WYE-125132] here?
A: The IC50 was 0.19 nM.

Q: Which results are given for `CO[C@H]1C[C@@H]2CC[C@@H](C)[C@@](O)(O2)C(=O)C(=O)N2CCCC[C@H]2C(=O)O[C@H]([C@H](C)C[C@@H]2CC[C@@H](OCCO)[C@H](OC)C2)CC(=O)[C@H](C)/C=C(\C)[C@@H](O)[C@@H](OC)C(=O)[C@H](C)C[C@H](C)/C=C/C=C/C=C/1C` [everolimus]?
A: tumor growth inhibition (TGI) (Caki-1 cells [1]): 52%; tumor growth inhibition (TGI) (786-0 cells [2]): 49%; tumor growth inhibition (TGI) (SK-N-BE(2) cells): 40%; tumor hypoxic fraction [4]: 6.3±1.5%; change of tumor hypoxia (in words) ([4]; vs vehicle, combination vs mTOR inhibitor alone): increased hypoxia in the tumor; also recorded: significantly increases tumor hypoxia; cell proliferation (expression of nuclear antigen Ki67) (Ki67, CD31, p-S6): significantly decreased; microvessel density (angiogenic marker CD31) (Ki67, CD31, p-S6): significantly decreased; phosphorylation of the S6 ribosomal protein (p-S6) (Ki67, CD31, p-S6): significantly decreased; IC50 (mTOR): 0.6 nM

Q: Which “tumor growth inhibition (TGI)” value (786-0 cells [6]) does the source give for `CO[C@H]1C[C@@H]2CC[C@@H](C)[C@@](O)(O2)C(=O)C(=O)N2CCCC[C@H]2C(=O)O[C@H]([C@H](C)C[C@@H]2CC[C@@H](OC(=O)C(C)(CO)CO)[C@H](OC)C2)CC(=O)[C@H](C)/C=C(\C)[C@@H](O)[C@@H](OC)C(=O)[C@H](C)C[C@H](C)/C=C/C=C/C=C/1C` [temsirolimus] here?
A: Its value is 113%.

Q: And the tumor hypoxic fraction [5]?
A: Its tumor hypoxic fraction is 12.8±0.7%.

Q: And the “change of tumor hypoxia (in words)” value [5]?
A: Its value is “significant increase of tumor hypoxia; also recorded: significantly increases tumor hypoxia”.
